Source: patent US20090069317A1, “Insecticidal Methods Using 3-Amino-1,2-Benzisothiazole Derivatives” (BASF SE, priority 2005, published 2009)

Columns and labels:
[1] = tested on: Bean Aphid (Aphis fabae); experiment: Bean aphid (Aphis fabae) nasturtium plant dip test, mortality; assay type: in vivo; details: 72 h, nasturtium plants dipped, aphid mortality after 3 days, read-out: mortality in comparison with untreated controls
Description: B.3. Bean Aphid (Aphis fabae)
(§1) The active compounds were formulated in 50:50 acetone:water and 100 ppm Kinetic® surfactant.
Nasturtium plants grown in Metro mix in the 1st leaf-pair stage (variety ‘Mixed Jewel’) were infested with approximately 20-30 laboratory-reared aphids by placing infested cut plants on top of the test plants. The cut plants were removed after 24 hr. Each plant was dipped into the test solution to provide complete coverage of the foliage, stem, protruding seed surface and surrounding cube surface and allowed to dry in the fume hood. The treated plants were kept at about 25° C. with continuous fluorescent light. Aphid mortality is determined after 3 days.

[2] = tested on: Cotton Aphid (Aphis gossypii); experiment: Cotton aphid (Aphis gossypii) cotyledon dip test, mortality; assay type: in vivo; details: 120 h, cotton cotyledons dipped, mortality counts after 5 days, read-out: mortality in comparison with untreated controls
Description: B.1 Cotton Aphid (Aphis gossypii)
as §1
Cotton plants at the cotyledon stage (one plant per pot) were infested by placing a heavily infested leaf from the main colony on top of each cotyledon. The aphids were allowed to transfer to the host plant overnight, and the leaf used to transfer the aphids was removed. The cotyledons were dipped in the test solution and allowed to dry. After 5 days, mortality counts were made.

[3] = tested on: Green Peach Aphid (Myzus Persicae); experiment: Green peach aphid (Myzus persicae) pepper leaf dip test, mortality; assay type: in vivo; details: foliar, 120 h, pepper plant leaves dipped, aphid mortality after 5 days, read-out: mortality in comparison with untreated controls
Description: B.2 Green Peach Aphid (Myzus Persicae)
as §1
Pepper plants in the 2nd leaf-pair stage (variety ‘California Wonder’) were infested with approximately 40 laboratory-reared aphids by placing infested leaf sections on top of the test plants. The leaf sections were removed after 24 hr. The leaves of the intact plants were dipped into gradient solutions of the test compound and allowed to dry. Test plants were maintained under fluorescent light (24 hour photoperiod) at about 25° C. and 20-40% relative humidity. Aphid mortality on the treated plants, relative to mortality on check plants, was determined after 5 days.

| melting point [°C] | SMILES | mortality at 300 ppm [1] [%] | mortality at 300 ppm [2] [%] | mortality at 300 ppm [3] [%] |
| --- | --- | --- | --- | --- |
|  | C=CCN(C1=NS(=O)(=O)c2cccc(Cl)c21)C(C)C [Compound 9] | > 86 | > 86 |  |
| 49 to 50 | CCN(CC)c1nsc2cccc(OC(F)F)c12 [Compound 59] |  |  |  |
|  | CN(C)c1nsc2cccc(Cl)c12 [Compound 49] | > 86 | > 86 | > 86 |
|  | CN(CC#N)C1=NS(=O)(=O)c2cccc(Cl)c21 [Compound 15] | > 86 | > 86 | > 86 |
|  | CC(C)N(C1=NS(=O)(=O)c2cccc(Cl)c21)C1CC1 [Compound 6] | > 86 | > 86 | > 86 |
|  | C#CCN(C1=NS(=O)(=O)c2cccc(OC(F)F)c21)C(C)C [Compound 36] | > 86 | > 86 | > 86 |
|  | CC(C)N(C1=NS(=O)(=O)c2cccc(Cl)c21)C(C)C [Compound 11] | > 86 |  |  |
|  | CCN(CC)C1=NS(=O)(=O)c2cccc(OC(F)F)c21 [Compound 31, (4-Difluoromethoxy-1,1-dioxo-1H-1λ^6-benzo[d]isothiazol-3-yl)-diethyl-amine] |  | > 86 | > 86 |
|  | CCN(C)C1=NS(=O)(=O)c2cccc(Cl)c21 [Compound 7] | > 86 | > 86 | > 86 |
|  | CCN(C1=NS(=O)(=O)c2cccc(OC)c21)C(C)C [Compound 28] |  | > 86 | > 86 |
|  | CCN(C)c1nsc2cccc(OC(F)F)c12 [Compound 80] |  | > 86 | > 86 |
|  | CC(C)N(C)c1nsc2cccc(Cl)c12 [Compound 86] |  | > 86 | > 86 |
|  | CN(CC#N)C1=NS(=O)(=O)c2cccc(OC(F)F)c21 [Compound 37] |  | > 86 | > 86 |
|  | COc1ccc(F)c2c1C(N(C)OC)=NS2(=O)=O [Compound 108] |  | > 86 | > 86 |
|  | CCN(CC)C1=NS(=O)(=O)c2cccc(Cl)c21 [Compound 3] | > 86 | > 86 | > 86 |
|  | C#CCN(C1=NS(=O)(=O)c2cccc(Cl)c21)C(C)C [Compound 4] | > 86 | > 86 |  |
|  | CCN(C)C1=NS(=O)(=O)c2cccc(OC)c21 [Compound 30, Ethyl-(4-methoxy-1,1-dioxo-1H-1λ^6-benzo[d]isothiazol-3-yl)-methyl-amine] |  | > 86 | > 86 |
|  | CON(C)C1=NS(=O)(=O)c2cccc(Cl)c21 [Compound 23] | > 86 | > 86 | > 86 |
|  | CCN(CC(C)C)C1=NS(=O)(=O)c2cccc(Cl)c21 [Compound 5] | > 86 | > 86 |  |
|  | CCN(C)c1n[s+]([O-])c2cccc(Cl)c12 (stereo not shown) [Compound 88] |  | > 86 | > 86 |
|  | COc1cccc2snc(N(C)CC(C)C)c12 [Compound 83] |  | > 86 | > 86 |
|  | CON(C)C1=NS(=O)(=O)c2cccc(OC(F)F)c21 [Compound 109] |  | > 86 | > 86 |
|  | C=CCN(CCC)C1=NS(=O)(=O)c2cccc(Cl)c21 [Compound 8] | > 86 | > 86 |  |
|  | CCCN(C)C1=NS(=O)(=O)c2cccc(Cl)c21 [Compound 19] |  | > 86 | > 86 |
|  | CCN(Cc1ccccc1)C1=NS(=O)(=O)c2cccc(Cl)c21 [Compound 12] | > 86 |  |  |
|  | CCN(CC)c1n[s+]([O-])c2cccc(Cl)c12 (stereo not shown) [Compound 74] |  | > 86 | > 86 |
|  | C#CCN(C)C1=NS(=O)(=O)c2cccc(OC(F)F)c21 [Compound 39] |  | > 86 | > 86 |
